Data on 22 compounds can be found in PubChem BioAssay (NCI).

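Five compound concentrations were applied to cells in 96-well plates for 48 hours; endpoints were derived by simple linear interpolation of the resulting dose-response curve. Here, GI50 denotes the concentration required for 50% inhibition of growth. TGI marks complete inhibition of growth.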 Bounds are passed on as bounds.

Test systems include K-562 leukemia; SK-MEL-28 melanoma; HT29 colon; NCI-H226 lung; MOLT-4 leukemia; SK-MEL-5 melanoma; CCRF-CEM leukemia; RPMI-8226 leukemia; M14 melanoma.
Holding throughout (experiment): NCI tumour cell line growth inhibition, 48 h

In the case of `O=C(Nc1ccc(Cl)cc1C(=O)O)c1ccc([N+](=O)[O-])cc1`, the TGI in the test with K-562 leukemia came to 90.4 µM; in the test on SK-MEL-28 melanoma it was 97.2 µM; in the test on HT29 colon, 40.7 µM; in the test with NCI-H226 lung it was 72.2 µM; with MOLT-4 leukemia, 61.7 µM; in the test on SK-MEL-5 melanoma it was 48.7 µM. Also, the TGI is 67.4 µM in the test on CCRF-CEM leukemia, 97.3 µM with RPMI-8226 leukemia and 60.8 µM in the test with M14 melanoma.
Take `COc1ccccc1/C=C\C(=O)C1COCN1` (stereo unspecified): the TGI is > 100 µM with K-562 leukemia; 36.6 µM in the test on SK-MEL-28 melanoma; 30.6 µM in the test with HT29 colon; 39.7 µM with NCI-H226 lung; > 100 µM with MOLT-4 leukemia; 25.1 µM with SK-MEL-5 melanoma. The TGI was > 100 µM with CCRF-CEM leukemia, 7.53 µM in the test with RPMI-8226 leukemia and > 100 µM in the test on M14 melanoma.
Consider `CC(C)COC1Sc2ccccc2S1`, for which the TGI with SK-MEL-28 melanoma is 33.7 µM; in the test with HT29 colon, 36.6 µM; in the test on MOLT-4 leukemia, > 100 µM; with CCRF-CEM leukemia, > 100 µM; in the test with RPMI-8226 leukemia, > 100 µM; with M14 melanoma, 52.4 µM.
In the case of `CCOC(=N)CC(=O)Nc1ccccc1`, the TGI in the test with K-562 leukemia is > 31.6 µM; in the test on SK-MEL-28 melanoma, > 46.4 µM; in the test on HT29 colon, > 46.4 µM; with NCI-H226 lung it was > 31.6 µM; in the test on MOLT-4 leukemia, > 31.6 µM; in the test on SK-MEL-5 melanoma it was > 46.4 µM. In addition, the figures for the TGI with CCRF-CEM leukemia, in the test on RPMI-8226 leukemia and with M14 melanoma were > 31.6 µM, 22.8 µM and > 46.4 µM, respectively.
For `N#C/C(=C1\OC(=N)C(c2ccccc2)C1=O)c1ccccc1` (stereo unspecified), the TGI with K-562 leukemia is 74.6 µM; with SK-MEL-28 melanoma, 20.2 µM; in the test on HT29 colon it was 57.7 µM; with NCI-H226 lung, > 100 µM; in the test with MOLT-4 leukemia, 74.6 µM; in the test on SK-MEL-5 melanoma it was > 64.2 µM. Also, the TGI is 48.6 µM in the test with CCRF-CEM leukemia, 73.3 µM in the test with RPMI-8226 leukemia and > 59.5 µM in the test on M14 melanoma.
For `C[N+](C)(C)c1cc[c]([Sn]([c]2ccc([N+](C)(C)C)cc2)([c]2ccc([N+](C)(C)C)cc2)[c]2ccc([N+](C)(C)C)cc2)cc1`, the GI50 in the test on K-562 leukemia, with SK-MEL-28 melanoma, with HT29 colon, with SK-MEL-5 melanoma, in the test on RPMI-8226 leukemia and in the test with M14 melanoma was > 100 µM in each case. For the same compound, the TGI with K-562 leukemia, with SK-MEL-28 melanoma, in the test on HT29 colon, with SK-MEL-5 melanoma, in the test on RPMI-8226 leukemia and in the test with M14 melanoma was > 100 µM in each case.
`CC1C=CC(C(N)C(=O)O)O1` (stereo unspecified): the TGI with K-562 leukemia, with SK-MEL-28 melanoma, with HT29 colon, in the test with NCI-H226 lung, in the test on MOLT-4 leukemia and with SK-MEL-5 melanoma was > 100 µM throughout. For the same compound, the TGI with CCRF-CEM leukemia, with RPMI-8226 leukemia and in the test with M14 melanoma was > 100 µM in each case.
For `CC1=CP(=O)(c2ccccc2)C=C(C)C1=C(Cl)Cl` (stereo unspecified), the TGI in the test with K-562 leukemia is 13.6 µM; in the test on SK-MEL-28 melanoma, 23.4 µM; in the test on HT29 colon it was 13.1 µM; with NCI-H226 lung it was 9.68 µM; in the test on MOLT-4 leukemia it was 21.6 µM; in the test on SK-MEL-5 melanoma it was 31.2 µM. Moreover, the TGI with CCRF-CEM leukemia was found to be 19.2 µM; in the test with RPMI-8226 leukemia, 11.5 µM; with M14 melanoma, 17.9 µM.
For the compound `O=C(CC1C(=O)Nc2ccccc2S1(=O)=O)Nc1ccc(Cl)cc1` (stereo unspecified), the TGI with K-562 leukemia is 48.9 µM; with SK-MEL-28 melanoma, 74.5 µM; in the test on HT29 colon, > 100 µM; in the test with NCI-H226 lung, > 100 µM; in the test on MOLT-4 leukemia, 37.6 µM; with SK-MEL-5 melanoma, 59.1 µM. The TGI in the test on CCRF-CEM leukemia was 77.7 µM; in the test on RPMI-8226 leukemia it was 29.6 µM; in the test with M14 melanoma, > 100 µM.
As to `O=C(N/C(=C\c1ccccc1O)c1nc2ccccc2[nH]1)c1ccccc1`, the TGI in the test on K-562 leukemia, in the test on SK-MEL-28 melanoma, in the test on HT29 colon, in the test with MOLT-4 leukemia, with SK-MEL-5 melanoma and with CCRF-CEM leukemia was > 100 µM throughout. For the same compound, the TGI with RPMI-8226 leukemia and with M14 melanoma was > 100 µM each time.
On to `CCCCCCCCCCCCN=C(N)c1ccc(N2CCN(c3ccc(C(N)=NCCCCCCCCCCCC)cc3)CC2)cc1`, for which the GI50 was 6.82 µM in the test with K-562 leukemia; 13.3 µM in the test with SK-MEL-28 melanoma; 5.68 µM in the test on HT29 colon; 12.9 µM in the test with NCI-H226 lung; 4.4 µM in the test on MOLT-4 leukemia; 10.5 µM in the test with SK-MEL-5 melanoma. For the same compound, the GI50 in the test with CCRF-CEM leukemia is 1.56 µM; with M14 melanoma, 7.82 µM. Also, the TGI is > 50 µM in the test on K-562 leukemia; 26.9 µM with SK-MEL-28 melanoma; 25.6 µM in the test on HT29 colon; 29.9 µM with NCI-H226 lung; > 50 µM in the test on MOLT-4 leukemia; 21.1 µM with SK-MEL-5 melanoma. Moreover, the values for the TGI in the test on CCRF-CEM leukemia and in the test with M14 melanoma were 10.9 µM and 16.4 µM, respectively.
Turning to `CCCCNC(=S)OCCC(C)CCCC(C)C` (stereo unspecified), the TGI in the test with K-562 leukemia, with SK-MEL-28 melanoma, in the test with HT29 colon, in the test on MOLT-4 leukemia, with SK-MEL-5 melanoma and in the test with CCRF-CEM leukemia was > 100 µM each time. For the same compound, the TGI in the test on RPMI-8226 leukemia and with M14 melanoma was > 100 µM throughout.
Consider `COc1ccc(O)cc1C(O)c1ccccc1` (stereo unspecified), for which the TGI with K-562 leukemia, in the test on SK-MEL-28 melanoma, with HT29 colon, in the test with NCI-H226 lung, in the test on MOLT-4 leukemia and in the test with SK-MEL-5 melanoma was > 100 µM throughout. Moreover, the TGI with CCRF-CEM leukemia and in the test with M14 melanoma was > 100 µM each time.
With `Nc1nc2c(-c3ccc([N+](=O)[O-])cc3)nnn2c2ccccc12`, the TGI in the test with K-562 leukemia, in the test with SK-MEL-28 melanoma, in the test on HT29 colon, in the test on NCI-H226 lung, in the test on MOLT-4 leukemia and in the test with RPMI-8226 leukemia was > 100 µM in each case. Moreover, the TGI in the test on M14 melanoma was > 100 µM.
Take `COc1ccc(/C=C/C(=O)c2c(-c3ccccc3)nn(C)c(=O)c2N2CCOCC2)cc1`: the TGI in the test on K-562 leukemia, in the test on SK-MEL-28 melanoma, with HT29 colon, in the test with MOLT-4 leukemia, in the test with SK-MEL-5 melanoma and with CCRF-CEM leukemia was > 100 µM each time. Also, the TGI in the test on RPMI-8226 leukemia and in the test on M14 melanoma was > 100 µM throughout.
Take `c1ccc2c(c1)Cc1c(Cc3csc4ccccc34)ccc3cccc-2c13`: the TGI in the test on K-562 leukemia, in the test with SK-MEL-28 melanoma, with HT29 colon, in the test with MOLT-4 leukemia, with SK-MEL-5 melanoma and in the test with CCRF-CEM leukemia was > 100 µM in each case. For the same compound, the TGI in the test on RPMI-8226 leukemia and with M14 melanoma was > 100 µM in each case.
In the case of `COCCc1n(Cc2ccc3ccccc3c2)c2ccccc2[n+]1Cc1ccc2ccccc2c1`, the GI50 with SK-MEL-28 melanoma was 0.567 µM; with HT29 colon it was 0.379 µM; with SK-MEL-5 melanoma it was 0.371 µM. For the same compound, the results for the TGI in the test on SK-MEL-28 melanoma, with HT29 colon and in the test with SK-MEL-5 melanoma were 1.97 µM, 1.51 µM and 1.36 µM, respectively.
Take `Cc1ccc(/C=C/C(=O)c2sc(-n3nc(-c4ccccc4)cc3-c3ccccc3)nc2C)cc1`: the TGI with K-562 leukemia, with SK-MEL-28 melanoma, in the test on HT29 colon, in the test with NCI-H226 lung, with MOLT-4 leukemia and in the test on SK-MEL-5 melanoma was > 100 µM throughout. Besides, the TGI with CCRF-CEM leukemia and with RPMI-8226 leukemia was > 100 µM throughout.
For the compound `O=C(CCC(=O)Nc1cccc(C(F)(F)F)c1)CC(=O)c1ccc2ccccc2c1`, the TGI in the test with K-562 leukemia, in the test on HT29 colon, with NCI-H226 lung, with MOLT-4 leukemia, in the test on SK-MEL-5 melanoma and in the test with CCRF-CEM leukemia was > 100 µM each time. Besides, the TGI with RPMI-8226 leukemia and in the test with M14 melanoma was > 100 µM throughout.
`COc1cc(/C=C(\NC(=O)c2ccccc2)c2nc3ncncc3[nH]2)cc(OC)c1OC`: the TGI with K-562 leukemia, in the test with SK-MEL-28 melanoma, in the test on HT29 colon, with MOLT-4 leukemia, in the test on SK-MEL-5 melanoma and with CCRF-CEM leukemia was > 100 µM each time. Also, the TGI with M14 melanoma is > 100 µM.
In the case of `CCc1cc2c(O)c(c1)Cc1cc(CC)cc(c1O)Cc1cc(CC)cc(c1O)Cc1cc(CC)cc(c1O)Cc1cc(CC)cc(c1O)Cc1cc(CC)cc(c1O)Cc1cc(CC)cc(c1O)C2`, the TGI in the test on SK-MEL-28 melanoma, in the test on HT29 colon, in the test with MOLT-4 leukemia, in the test on SK-MEL-5 melanoma, in the test on CCRF-CEM leukemia and in the test with RPMI-8226 leukemia was > 100 µM each time. Moreover, the TGI in the test on M14 melanoma was > 100 µM.
For `COc1cc2c3c(n(CCCNCCCNCCN)c(=O)c2cc1OC)-c1cc2c(cc1C3=O)OCO2`, the GI50 in the test with SK-MEL-28 melanoma was 48.5 µM; with HT29 colon, 20.9 µM; in the test with NCI-H226 lung, 79.4 µM; with MOLT-4 leukemia it was 10.9 µM; with SK-MEL-5 melanoma, 35.7 µM; in the test with CCRF-CEM leukemia, 10.1 µM. For the same compound, the GI50 was 17.2 µM in the test with RPMI-8226 leukemia and 53.9 µM with M14 melanoma. Also, the TGI in the test on SK-MEL-28 melanoma is > 100 µM; in the test on HT29 colon it was 95.2 µM; with NCI-H226 lung, > 100 µM; in the test on MOLT-4 leukemia, > 100 µM; with SK-MEL-5 melanoma, > 100 µM; in the test with CCRF-CEM leukemia it was 32.2 µM. For the same compound, the TGI is 49 µM with RPMI-8226 leukemia and > 100 µM with M14 melanoma.
